Reference: patent publication US20220313650A1, “METHODS FOR TREATING NEURODEVELOPMENTAL DISORDERS” (The Broad Institute, Inc., priority 2019, published 2022)
Entries after “also recorded” stand apart in the source; their conditions may differ.

Test system: cortico-TRN synapses
Assay: Optogenetically evoked EPSCs in patched TRN neurons, cortico-TRN pathway
Type: cell-based, mice
Experimental: For conducting slice electrophysiology analysis, whole-cell patch-clamp recordings were performed using horizontal slices for the rebound bursting assays and angled-coronal thalamocortical slices for the synaptic optogenetics experiments (Agmon et al., 1991). 21-35 day old male C57BL6 mice and Ptchd1 Y/− (knockout) mice were used. Animals were transcardially perfused under isoflurane anesthesia with an ice-cold cutting solution (194 mM Sucrose, 30 mM NaCl, 4.5 mM KCl, 1.2 mM NaH2PO4, 10 mM Glucose, 2 mM MgCl2, 0.2 mM CaCl2, and 26 mM NaHCO3). Mice were then decapitated and the brains were carefully dissected out. Both cerebellum and olfactory bulb were removed from the brain and were placed and glued onto the stage of a Leica Vibratome with the ventral surface down and the pial surface towards the blade. 250 micron thick slices containing the TRN were then collected and recovered in regular artificial cerebrospinal fluid (aCSF; 119 mM NaCl, 2.3 mM KCl, 1 mM NaH2PO4; 11 mM Glucose, 1.3 mM MgCl2, 2.5 mM CaCl2), 26 mM NaHCO3) heated to 32° C. for 10 minutes and then at room temperature for at least 1 hr. All buffers were continuously bubbled with 95% O2/5% C02. Slices were then transferred to a submersion recording chamber where they were perfused with aCSF at a rate of 2 ml/min at room temperature. Patch recording pipettes were pulled using a Flaming/Brown micropipette puller (Sutter Instruments) and Borosilicate glass (KG33, King Precision Glass). The DC resistances were ˜4-6 MΩ. Potassium methanesulfonate based internal solution (140 mM KMeSO3; 10 mM KCl; 10 mM HEPES; 0.1 mM EGTA; 4 mM Mg-ATP; 0.2 mM Na-GTP; 10 mM hosphocreatine) was used. Neurons were visualized using infrared differential interference contrast (IR-DIC) microscopy (Olympus, BX51W1) with an upright microscope digital camera.
To study the changes in the acute somatosensory thalamocortical or horizontal brain areas, 21-25 days old Nex-Cre or VgluT2-Cre mice were anesthetized with isoflurane while placed in a small animal stereotaxic apparatus (David Kopf Instruments, CA, USA) and were injected bilaterally with 280 nl of mcherry-dflox.hChR2.EF1.AAV1 using a Nanoject (Drummond Scientific, Broomall, Pa.) via glass pipettes with […] diameter tips in somatosensory cortex (S1) and ventrobasal thalamic complex (VB). Coordinates from the bregma for S1: AP −0.7, ML 2.4 and DV 1.2 and for VB: AP −1.6, ML 1.5 and DV 3.5. The pipette was held in the final position for 10 min after injection before withdrawal from the brain. The incision was closed with vetbond and after surgery mice were injected with analgesics (SR-Bupronex 1 mg/kg) every 72 hours or as needed. […]
After allowing 1-2 weeks for mcherry-dflox.hChR2.EF1.AAV1 expression, acute somatosensory thalamocortical or horizontal brain slices were freshly obtained for in vitro recording and optogenetic stimulation (250 um thick, thalamocortical slices containing TRN from angled-coronal sections; Agmon and Connors, 1991) for optogenetic analysis. In brief, patch clamp recordings in voltage clamp configuration were performed while the Cortico-TRN or Thalamic-TRN pathway was activated by applying a blue LED (400-450 nm) light pulses (Lumen 300-LED Fluorescence Excitation Illumination System). For synaptic stimulation, neurons were held at −70 mV while 0.1-1.5 ms flashes were delivered directly to the recorded cell soma delivered through the 40× water immersion objective. […]

N[C@@]1(C(=O)O)COC2C(C(=O)O)C21 (stereo in doubt) [LY379268, (1R,4R,5S,6R)-4-Amino-2-oxabicyclo[3.1.0] hexane-4,6-dicarboxylic acid]
paired-pulse ratio (PPR) (cortico-TRN synapses, before vs after bath application): significantly changed as well as the paired-pulse ratio; also recorded: significant changes in the size of paired-pulse ratio (PPR)
amplitude of optogenetic evoked EPSCs (cortico-TRN, 20 Hz, LY379268 1 μM bath application): amplitude was significantly changed
